Key:
Zone of skin [1] = experiment: Permeability across human skin assessed as drug content per gram of wet tissue applied topically after 24 hrs by LC-MS analysis; type: ADME, tissue-based
Zone of skin [2] = experiment: Permeability across human skin assessed as cumulative drug content applied topically after 24 hrs by LC-MS analysis; type: ADME, tissue-based
Zone of skin [3] = experiment: Permeability across human skin assessed as permeation lag time applied topically after 24 hrs by LC-MS analysis; type: ADME, tissue-based
Zone of skin [4] = experiment: Permeability across guinea pig skin assessed as drug content per gram of wet tissue applied topically after 24 hrs by LC-MS analysis; type: ADME, tissue-based, Cavia porcellus; details: topical_or_ocular
Zone of skin [5] = experiment: Permeability across guinea pig skin assessed as cumulative drug content applied topically after 24 hrs by LC-MS analysis; type: ADME, tissue-based, Cavia porcellus; details: topical_or_ocular
Zone of skin [6] = experiment: Permeability across guinea pig skin assessed as permeation lag time applied topically after 24 hrs by LC-MS analysis; type: ADME, tissue-based, Cavia porcellus; details: topical_or_ocular
[7] = Ratio of permeability flux across guinea pig skin to permeability flux across human skin; type: ADME, tissue-based, Zone of skin

Drug uptake (Zone of skin [1]): 20 µmol | Drug uptake (Zone of skin [2]): 3.8 nmol | Activity (Zone of skin [3]): 1.5 h | Drug uptake (Zone of skin [4]): 5.8 µmol | Drug uptake (Zone of skin [5]): 75.6 nmol | Activity (Zone of skin [6]): 2.8 h | Ratio [7]: 19
SMILES: C=C[C@@]1(C)CC(=O)[C@]2(O)[C@@]3(C)[C@@H](O)CCC(C)(C)[C@@H]3[C@H](O)[C@H](OC(C)=O)[C@@]2(C)O1 [COLFORSIN]

From ChEMBL document CHEMBL1151847, “In vitro skin diffusion study of pure forskolin versus a forskolin-containing Plectranthus barbatus root extract” (J Nat Prod, 2009)
